Tests used:
[1] = test system: TABX2S cells (over-expressing Bcl-xL); assay: in vitro
Text: (§1) Briefly, a DNA fragment encoding the full-length mouse Bcl-xL cDNA was isolated from the plasmid pBS-BCL-xL (Tzung et al., Am. J. Path. 150:1985-1995 (1997), incorporated herein by reference in its entirety) by digestion with the restriction endonuclease EcoRI. This EcoRI fragment was cloned into the EcoRI site of the mammalian expression vector pSFFV (Fuhlbrigge et al., Proc. Nat. Acad. Sci. USA 85:5649-5653 (1988)) in both sense and antisense orientations, to form expression plasmids pSFFV-Bc/-xL-WT(sense) or pSFFV-Bc/-xL(antisense), respectively. The tumorigenic murine hepatocyte cell line TAMH was transfected by lipofection (Lipofectamine, Life Technologies, Rockville, Md., according to the manufacturer's recommendations) with the plasmids pSFFV-neo (the control), pSFFV-Bc/-xL-WT(sense) or pSFFV-Bc/-xL(antisense). Characterization of and culture conditions for the cell lines have been previously published (Wu et al., Proc. Nat. Acad. Sci. USA 91:674-78 (1994); Wu et al., Cancer Res. 54:5964-5973 (1994)). Transfectants were selected for the acquisition of neomycin resistance by growing cells in the presence of 750 μg/ml of G418. Bulk transfectants were cloned by limiting dilution and individual clones were screened by immunoblot analysis to determine the level of Bcl-xL, protein expression as described below.
(§2) Selected transfectants were then tested for whole cell sensitivity to several apoptotic agents. Transfected cells were cultured to reach approximately 80% confluency prior to plating an equal number of cells from selected clones on 12-well tissue culture plates. The transplanted cells were treated with the following apoptotic agents: 5 μM doxorubicin for 48 hours; 5 μM cisplatin for 48 hours; or with 200 U/ml tumor necrosis factor (TNF) plus 1 μg/ml actinomycin D for 18 hours. Cell viability was determined by trypan blue dye exclusion. The percentage of viable cells was calculated by the number of viable cells (treated with a particular apoptogenic agent) divided by the number in the control group (untreated).
TABX2S cells and TABX1A cells were also examined for the effects of various mitochondrial inhibitors. […] Azide was diluted from an aqueous stock solution.

[2] = test system: TABX1A cells (Bcl-xL antisense); assay: Cell viability by trypan blue dye exclusion; settings: 2 μg/ml, without fructose, six hours
Text: as §1
as §2, with “(untreated). […]” for “(untreated).”

[3] = test system: NCI-H929 myeloma cells; assay: [3H]-thymidine incorporation; assay type: cell-based, human
Protocol: (§3) RPMI-8226 cells were grown in 96 well plates for 24 h prior to addition of 2-methoxy antimycins. Antimycin stocks in dimethyl sulfoxide (DMSO) were serially diluted in RPMI. Cells were incubated for 48 h with compounds at final compound concentrations ranging from 10^−4 to 10^−8 M. MTT cell proliferation assays were performed in quadruplicate and percent growth inhibitions were calculated as (A570 (control cells)-A570 (treated cells))/A570 (control cells). GI50 was extrapolated from semi-log plots of the dose response for each compound. […] After 72 h drug exposures, 1 μCi/ml [^3H]-thymidine was added to wells. Cells were incubated for an additional 24 h, and then transferred to GF/C filter plates (Packard) using a plate washer. Filters were dried, added to scintillant, and counted in a TopCount® scintillation counter (Packard). Drug response is expressed as the percentage of vehicle-treated controls, and each value shown is the average of three determinations.

[4] = test system: RPMI-8226 myeloma cells; assay: [3H]-thymidine incorporation; assay type: cell-based, human
Protocol: as §3

[5] = test system: U266 myeloma cells; assay: [3H]-thymidine incorporation; assay type: cell-based, human
Protocol: as §3

[6] = test system: TAMH cells; assay: Microsequential injection-lab on valve glucose consumption and lactate production; assay type: cell-based, murine; settings: 10-100 nM
Protocol: Detailed methods have been previously published (Schulz et al., Analyst 127:1583-1588 (2002)). Cytopore™ beads (Amersham Pharmacia Biotech, Upsala, Sweden) were hydrated in Hanks balanced salt solution (Gibco-BRL, Grand Island, N.Y.) and autoclaved according to manufacturers instructions. Beads were incubated in serum-containing media overnight. TAMH cells were transferred to the bead slurry at an approximate ratio of 50 cells per bead and grown in spinner culture flasks with gentle stirring. Beads were collected for metabolic studies at cell densities of approximately 100-500 cells/bead. For experiments, cell medium was replaced with HBSS. […]
Glucose and lactate concentrations were assayed as substrates in first-order NAD-linked enzymatic reactions, with NADH generation monitored by absorbance at 340 nm. […]
An assay cycle is initiated by packing a column of cells attached to beads in the microbioreactor, which is upstream of the LOV flow cell. […] After the stop flow period, 3 μL of the interstitial fluid from the cell column is injected through to the LOV flow cell previously loaded with glucose or lactate reagent and 340 nm absorbance recorded for 30 s after mixing. Calibration standards were used to convert endpoint absorbance to concentrations. […]

Substance: antimycin A
- time until cell death readily apparent [1]: ≤ 2 h
- survival [2]: 87%
- 50% growth inhibition (GI50) [3]: 0.2 µg/mL
- 50% growth inhibition (GI50) [4]: 0.1 µg/mL
- 50% growth inhibition (GI50) [5]: 0.05 µg/mL
- glucose uptake and lactate production [6]: increased glucose uptake and lactate production
